Converted amounts (≈) assume the structure as drawn. Read-outs that look alike come from different tables or passages of the source.
Columns and labels:
[1] = CHI Log D procedure; assay type: physicochemical; settings: for CHI Log D: pH 7.4
[2] = Solubility in PBS; assay type: physicochemical
In short: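 Solubility is derived from HPLC peak areas: the ratio of the PBS supernatant peak to a 50 μM DMSO peptide peak, times 50 uM.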

[3] = target: T1, beta-catenin/TCF4 engagement (Homo sapiens, UniProt P35222); test: Nano-BRET target engagement assay (B-cat-Halo & TCF4-Luc in HEK293 cells); assay type: cell-based; settings: absolute IC50; read-out: NanoBRET Abs IC50
T1 construct: expressed in transfected cells; host or cells: HEK293
T1 sequence (P35222 1-781): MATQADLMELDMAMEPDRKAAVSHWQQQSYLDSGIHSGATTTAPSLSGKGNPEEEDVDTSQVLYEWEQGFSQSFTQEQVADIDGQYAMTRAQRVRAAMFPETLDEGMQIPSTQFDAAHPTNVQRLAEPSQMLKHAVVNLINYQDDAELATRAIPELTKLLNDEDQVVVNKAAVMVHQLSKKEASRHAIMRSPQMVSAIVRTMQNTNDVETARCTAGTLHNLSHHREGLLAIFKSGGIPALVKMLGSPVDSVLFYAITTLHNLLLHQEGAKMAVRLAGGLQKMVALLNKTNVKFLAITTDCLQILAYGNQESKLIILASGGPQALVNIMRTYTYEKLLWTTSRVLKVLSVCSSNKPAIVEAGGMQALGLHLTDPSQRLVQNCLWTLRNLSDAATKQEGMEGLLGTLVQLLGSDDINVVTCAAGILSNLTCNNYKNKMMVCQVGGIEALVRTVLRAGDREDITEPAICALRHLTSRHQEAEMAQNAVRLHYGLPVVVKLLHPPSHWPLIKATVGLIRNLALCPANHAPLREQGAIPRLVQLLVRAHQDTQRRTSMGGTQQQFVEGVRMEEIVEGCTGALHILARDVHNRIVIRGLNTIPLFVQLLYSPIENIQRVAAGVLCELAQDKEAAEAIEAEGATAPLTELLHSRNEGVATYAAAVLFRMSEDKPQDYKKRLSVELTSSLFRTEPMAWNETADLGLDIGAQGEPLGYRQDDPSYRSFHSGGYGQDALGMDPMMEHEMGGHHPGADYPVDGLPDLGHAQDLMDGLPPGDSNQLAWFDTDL

[4] = target: T2, full-length beta-Catenin (Uniprot ID P35222) (Homo sapiens, UniProt P35222); test: Fluorescence polarization IC50 (beta-catenin / 5FAM-TCF4 10-53 competition); assay type: binding; settings: fluorescence polarization; read-out: beta-Catenin FP IC50
T2 construct: 10 nM full-length beta-Catenin (Uniprot ID P35222)
T2 sequence (P35222 1-781): T1 sequence (P35222 1-781)

Row | logD ([1]; pH 7.4, CHI Log D) | Solubility [2] | CHI Log D [1] | Solubility ([2]; 15 min) | IC50 [3] | IC50 [4] | Solubility ([2]; Solubility (uM)) | SMILES
1 | 1.91 | 10 µM (≈ 25.6 µg/mL) | – | – | – | – | – | CC(=O)N1CCC[C@]12CC=CCCCC1(CCCC=CCCCOC(=O)N3CC[C@@](C(=O)N[C@@H](Cc4ccsc4)C(=O)N[C@@H](Cc4csc5ccccc45)C(=O)N[C@@H](CCC(N)=O)C(N)=O)(C3)NC(=O)[C@H](Cc3ccccc3)NC(=O)[C@H](Cc3ccccc3)NC(=O)[C@H](C)NC(=O)[C@H](CCCCNC(=O)c3ccc(-n4cc(CNC(=O)c5ccc6c(c5)C5(OC6=O)c6ccc(O)cc6Oc6cc(O)ccc65)nn4)cc3)NC(=O)[C@H](CC(C)C)NC(=O)[C@H](CC(=O)O)NC1=O)NC(=O)[C@H](CC(C)(C)C)NC(=O)[C@H](CC(=O)O)NC2=O (stereo partly drawn) [I-869, Ac-PL3-Asp-Npg-B5-Asp-Leu-[FAM6Ppg][p1TB]Lys-Ala-Phe-Phe-PyrS2-3Thi-BztA-Gln-NH2]
2 | – | 49 µM (≈ 90.3 µg/mL) | 1.341 | – | – | – | – | CC(=O)N1CCC[C@]12CC=CCCCC1(CCCC=CCCCCCC[C@@](C)(C(=O)N[C@@H](Cc3ccc(C(=O)O)cc3)C(=O)N[C@@H](Cc3csc4ccccc34)C(=O)N[C@@H](CCC(N)=O)C(N)=O)NC(=O)[C@H](C(C)C)NC(=O)[C@H](Cc3ccccc3)NC(=O)[C@H](C)NC(=O)[C@H](C)NC(=O)[C@H](CC(=O)O)NC(=O)[C@H](CC(=O)O)NC1=O)NC(=O)[C@H](C)NC(=O)[C@H](CC(=O)O)NC2=O (stereo partly drawn) [I-340, Ac-PL3-Asp-Ala-B5-Asp-Asp-Ala-Ala-Phe-Val-S8-4COOHF-BztA-Gln-NH2]
3 | – | 36 µM (≈ 65.3 µg/mL) | 1.859 | – | – | – | – | CC(=O)N1CCC[C@]12CC=CCCCC1(CCCC=CCCCCCC[C@@](C)(C(=O)N[C@@H](Cc3ccccn3)C(=O)N[C@@H](Cc3csc4ccccc34)C(=O)N[C@@H](CCC(N)=O)C(N)=O)NC(=O)[C@H](C(C)C)NC(=O)[C@H](Cc3ccccc3)NC(=O)[C@H](C)NC(=O)[C@H](C)NC(=O)[C@H](CCC(=O)O)NC(=O)[C@H](CC(=O)O)NC1=O)NC(=O)[C@H](C)NC(=O)[C@H](CC(=O)O)NC2=O (stereo partly drawn) [I-383, Ac-PL3-Asp-Ala-B5-Asp-Glu-Ala-Ala-Phe-Val-S8-2pyrA-BztA-Gln-NH2]
4 | – | – | 2.038 | 40 µM (≈ 71.4 µg/mL) | – | – | – | CC(=O)N1CCC[C@]12CC=CCCCC1(CCCC=CCCCCCC[C@@](C)(C(=O)N[C@@H](Cc3ccccc3)C(=O)N[C@@H](Cc3c[nH]c4ccccc34)C(=O)N[C@@H](CCC(N)=O)C(N)=O)NC(=O)[C@H](C(C)C)NC(=O)C(Cc3cncn3C)NC(=O)[C@H](C)NC(=O)[C@H](C)NC(=O)[C@H](CC(=O)O)NC(=O)[C@H](CC(=O)O)NC1=O)NC(=O)[C@H](C)NC(=O)[C@H](CC(=O)O)NC2=O (single isomer, unassigned) [I-332, Ac-PL3-Asp-Ala-B5-Asp-Asp-Ala-Ala-3meH-Val-S8-Phe-Trp-Gln-NH2]
5 | – | 50 µM (≈ 94.2 µg/mL) | 2.39 | – | – | – | – | CC[C@H](C)[C@@H]1NC(=O)[C@H](CC(=O)O)NC(=O)[C@]2(CC=CCCCC3(CCCC=CCCCCCC[C@@](C)(C(=O)N[C@@H](Cc4ccccc4)C(=O)N[C@@H](Cc4ccccc4)C(=O)N[C@@H](CCC(N)=O)C(N)=O)NC(=O)[C@H](CCC(N)=O)NC(=O)[C@H](Cc4csc5ccccc45)NC(=O)[C@H](C)NC(=O)[C@H](C)NC(=O)[C@H](CCC(=O)O)NC(=O)[C@H](CC(=O)O)NC3=O)NC1=O)CCCN2C(C)=O (stereo partly drawn) [I-586, Ac-PL3-Asp-Ile-B5-Asp-Glu-Ala-Ala-BztA-Gln-S8-Phe-Phe-Gln-NH2]
6 | – | 10 µM (≈ 20.5 µg/mL) | – | – | 14200 nM | 44 nM | – | CC(=O)N1CCC[C@]12CC=CCCCC1(CCCC=CCCCOC(=O)N3CC[C@@](C(=O)N[C@@H](Cc4ccccc4Cl)C(=O)N[C@@H](Cc4csc5ccccc45)C(=O)N[C@@H](CCC(N)=O)C(N)=O)(C3)NC(=O)[C@H](Cc3cccc(C(F)(F)F)c3)NC(=O)[C@H](Cc3ccccc3)NC(=O)[C@H](C)NC(=O)[C@H](C)NC(=O)[C@H](CC(=O)O)NC(=O)[C@H](CC(=O)O)NC1=O)NC(=O)[C@H](CC(C)(C)C)NC(=O)[C@H](CC(=O)O)NC2=O (stereo partly drawn) [I-1368, Ac-PL3-Asp-Npg-B5-Asp-Asp-Ala-Ala-Phe-3F3MeF-PyrS2-2C1F-BztA-Gln-NH2]
7 | – | 50 µM (≈ 95.9 µg/mL) | – | – | 27800 nM | 32 nM | – | CC(=O)N1CCC[C@]12CC=CCCCC1(CCCC=CCCCOC(=O)N3CC[C@@](C(=O)N[C@@H](Cc4ccsc4)C(=O)N[C@@H](Cc4csc5ccccc45)C(=O)N[C@@H](CCC(N)=O)C(N)=O)(C3)NC(=O)[C@H](CC(N)=O)NC(=O)[C@H](Cc3ccccc3)NC(=O)[C@H](C)NC(=O)[C@H](C)NC(=O)[C@H](CC(=O)O)NC(=O)[C@H](CC(N)=O)NC1=O)NC(=O)[C@H](CC(C)(C)C)NC(=O)[C@H](CC(=O)O)NC2=O (stereo partly drawn) [I-1206, Ac-PL3-Asp-Npg-B5-Asn-Asp-Ala-Ala-Phe-Asn-PyrS2-3Thi-BztA-Gln-NH2]
8 | – | – | – | – | 11900 nM | 25 nM | 47 µM (≈ 87 µg/mL) | CC(=O)N1CCC[C@]12CC=CCCCC1(CCCC=CCCCCCC[C@@](C)(C(=O)N[C@@H](Cc3ccccc3Cl)C(=O)N[C@@H](Cc3csc4ccccc34)C(=O)N[C@H](CO)[C@@H](C)O)NC(=O)[C@H]([C@@H](C)O)NC(=O)[C@H](Cc3ccccc3)NC(=O)[C@H](C)NC(=O)[C@H](C)NC(=O)[C@H](CC(=O)O)NC(=O)[C@H](CC(=O)O)NC1=O)NC(=O)[C@H](CC(C)(C)C)NC(=O)[C@H](CC(=O)O)NC2=O (stereo partly drawn) [I-1308, Ac-PL3-Asp-Npg-B5-Asp-Asp-Ala-Ala-Phe-Thr-S8-2C1F-BztA-Thro1]
9 | – | 10 µM (≈ 18.8 µg/mL) | – | – | 16200 nM | 29.5 nM | – | CC(=O)N1CCC[C@]12CC=CCCCC1(CCCC=CCCCCCC[C@@](C)(C(=O)N[C@@H](Cc3ccsc3)C(=O)N[C@@H](Cc3csc4ccccc34)C(=O)N[C@@H](Cc3c[nH]cn3)C(N)=O)NC(=O)[C@H](CC(C)C)NC(=O)[C@H](Cc3ccccc3)NC(=O)[C@H](C)NC(=O)[C@H](C)NC(=O)[C@H](CC(=O)O)NC(=O)[C@H](CC(=O)O)NC1=O)NC(=O)[C@H](CC(C)(C)C)NC(=O)[C@H](CC(=O)O)NC2=O (stereo partly drawn) [I-1195, Ac-PL3-Asp-Npg-B5-Asp-Asp-Ala-Ala-Phe-Leu-S8-3Thi-BztA-His-NH2]
10 | – | 10 µM (≈ 20 µg/mL) | – | – | 14200 nM | 65 nM | – | CC(=O)N1CCC[C@]12CC=CCCCC1(CCCC=CCCCOC(=O)N3CC[C@@](C(=O)N[C@@H](Cc4ccccc4Cl)C(=O)N[C@@H](Cc4csc5ccccc45)C(=O)N[C@@H](CO)C(N)=O)(C3)NC(=O)[C@H]([C@@H](C)O)NC(=O)[C@H](Cc3ccccc3)NC(=O)[C@H](CC(C)C)NC(=O)[C@H](CC(C)C)NC(=O)[C@H](CC(=O)O)NC(=O)[C@H](CC(=O)O)NC1=O)NC(=O)[C@H](CC1CCCCC1)NC(=O)[C@H](CC(=O)O)NC2=O (stereo partly drawn) [I-1152, Ac-PL3-Asp-Cha-B5-Asp-Asp-Leu-Leu-Phe-Thr-PyrS2-2C1F-BztA-Ser-NH2]
11 | – | – | – | – | 27300 nM | 13 nM | 44 µM (≈ 84.2 µg/mL) | CC(=O)N1CCC[C@]12CC=CCCCC1(CCCC=CCCCOC(=O)N3CC[C@@](C(=O)N[C@@H](Cc4ccccc4Cl)C(=O)N[C@@H](Cc4csc5ccccc45)C(=O)N[C@H](C(N)=O)[C@@H](C)O)(C3)NC(=O)[C@H](CO)NC(=O)[C@H](Cc3ccccc3)NC(=O)[C@H](C)NC(=O)[C@H](C)NC(=O)[C@H](CC(=O)O)NC(=O)[C@H](CC(=O)O)NC1=O)NC(=O)[C@H](Cc1ccccc1)NC(=O)[C@H](CC(=O)O)NC2=O (stereo partly drawn) [I-1141, Ac-PL3-Asp-Phe-B5-Asp-Asp-Ala-Ala-Phe-Ser-PyrS2-2C1F-BztA-Thr-NH2]
12 | – | – | – | – | > 20000 nM | 9 nM | 48 µM (≈ 93.8 µg/mL) | CC(=O)N1CCC[C@]12CC=CCCCC1(CCCC=CCCCOC(=O)N3CC[C@@](C(=O)N[C@@H](Cc4ccccc4C(N)=O)C(=O)N[C@@H](Cc4csc5ccccc45)C(=O)N[C@@H](CCC(N)=O)C(N)=O)(C3)NC(=O)[C@H](CC(N)=O)NC(=O)[C@H](Cc3ccccc3)NC(=O)[C@H](C)NC(=O)[C@H](C)NC(=O)[C@H](CC(=O)O)NC(=O)[C@H](CC(=O)O)NC1=O)NC(=O)[C@H](CC(C)(C)C)NC(=O)[C@H](CC(=O)O)NC2=O (stereo partly drawn) [I-1314, Ac-PL3-Asp-Npg-B5-Asp-Asp-Ala-Ala-Phe-Asn-PyrS2-2cbmF-BztA-Gln-NH2]
13 | – | 10 µM (≈ 19.8 µg/mL) | – | – | 7500 nM | 7 nM | – | CC(=O)N1CCC[C@]12CC=CCCCC1(CCCC=CCCCOC(=O)N3CC[C@@](C(=O)N[C@@H](Cc4ccccc4Cl)C(=O)N[C@@H](Cc4csc5ccccc45)C(=O)N[C@@H](CCC(N)=O)C(N)=O)(C3)NC(=O)[C@H](Cc3ccccc3)NC(=O)[C@H](Cc3ccccc3)NC(=O)[C@H](C)NC(=O)[C@H](C)NC(=O)[C@H](CC(=O)O)NC(=O)[C@H](CC(=O)O)NC1=O)NC(=O)[C@H](CC(C)(C)C)NC(=O)[C@H](CC(=O)O)NC2=O (stereo partly drawn) [I-1366, Ac-PL3-Asp-Npg-B5-Asp-Asp-Ala-Ala-Phe-Phe-PyrS2-2C1F-BztA-Gln-NH2]

From patent US20240116985A1, “STAPLED PEPTIDES AND METHODS THEREOF” (priority 2020, published 2024)
